One compound from publication PMC6428840, “The Arabidopsis H3K27me3 demethylase JUMONJI 13 is a temperature and photoperiod dependent flowering repressor” (Nature Communications, 2019) can be followed below.

For the assay, the target named is T1, JMJ13CD (JMJ13 catalytic domain) (Arabidopsis thaliana, UniProt F4KIX0).
T1 construct: catalytic domain, residues 90-578 (jumonji, helical and C4HCHC zinc finger domains); His6-SUMO tag removed by ulp1; E. coli BL21(DE3) RIL; Ni2+ in place of Fe2+
In words: X-ray crystal structure, […] Å. The assay is classed as binding. The settings on record: JMJ13-NOG crystals soaked with 10 mM H3(24-35)K27me3 peptide; Ni2+ in place of Fe2+; pH 6.5; active site, α-KG analog.

T1 sequence (F4KIX0 90-578): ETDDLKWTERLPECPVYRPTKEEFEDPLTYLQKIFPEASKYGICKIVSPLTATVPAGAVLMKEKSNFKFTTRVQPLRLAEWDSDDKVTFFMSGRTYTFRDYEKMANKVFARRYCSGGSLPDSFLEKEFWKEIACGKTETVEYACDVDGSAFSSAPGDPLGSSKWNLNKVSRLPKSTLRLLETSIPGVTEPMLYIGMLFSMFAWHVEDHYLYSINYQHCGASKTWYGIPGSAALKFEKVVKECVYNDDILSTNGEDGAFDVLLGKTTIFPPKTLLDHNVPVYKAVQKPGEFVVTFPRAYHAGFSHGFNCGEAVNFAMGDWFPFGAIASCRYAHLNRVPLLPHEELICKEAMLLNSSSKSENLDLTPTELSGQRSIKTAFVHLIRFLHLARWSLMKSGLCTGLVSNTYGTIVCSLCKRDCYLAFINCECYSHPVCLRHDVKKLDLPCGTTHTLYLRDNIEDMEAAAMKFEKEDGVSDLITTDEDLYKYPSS

For `O=C(O)CNC(=O)C(=O)O` [NOG, N-oxalylglycine], the “X-ray crystal structure, 2.6 Å” value is “in complex with the α-KG analog N-oxalylglycine (NOG) and an H3K27me3 peptide”.
